“Also recorded” adds a separate entry of the source. Ends that are not written are not given here. * marks the point of attachment. Meth = methacrylated, methacrylate group attached (2-isocyanatoethyl methacrylate used), C=C(C)C(=O)OCCNC(=O)*
Columns and labels:
[1] = system: VLA-6 (α6) and αvβ3 integrin subunits; settings: cited from earlier work
hiPSC-CMs [2] = assay: hiPSC-CM adhesion on RGD peptide-functionalized PEG hydrogel microarray; assay type: cell-based, human; settings: 15 mM peptide, 3 days culture, 18 replicates
Procedure: (§1) PEGDA and methacrylated peptides were mixed at one fixed peptide concentration (15 mM) to prepare microarrayed hydrogels with a constant peptide concentration. hiPSC-CMs (human induced pluripotent stem cell-derived cardiomyocytes from Cellular Dynamics International, Madison, Wis., USA) were seeded onto the microarray and cultured for 3 days to facilitate the formation of sarcomere structures. hiPSC-CMs were stained with DAPI to approximate cell number and phalloidin for F-actin to estimate cell spreading. Sarcomere structure was examined by using immunofluorescence microscopy.
hiPSC-derived cardiomyocytes (iCell Cardiomyocytes, Cellular Dynamics International, Madison, Wis., USA) were cultured according to the manufacturer's protocol. Briefly, hiPSC-derived cardiomyocytes were plated on 0.1% gelatin coated 6-well plates in iCell Cardiomyocytes Plating Medium (Cellular Dynamics International) at a density of about 3×10^5 to 4.0×10^5 cells/well and incubated at 37° C. in 5% CO2 for 4 days. Two days after plating, the plating medium was removed and replaced with 4 mL of iCell Cardiomyocytes Maintenance Medium (Cellular Dynamics International). After 4 days of monolayer pre-culture, cells were detached using trypLE Express (Gibco Life Technologies, Grand Island, N.Y.) and seeded along with culture media on the hydrogel microarrays. […] Sarcomere structures were visualized using sarcomere actinin and troponin-I staining as described above.

hADSCs = assay: hADSC adhesion on peptide-functionalized PEGDA-700 hydrogel microarray (peptide function validation, glycine linker length); assay type: cell-based, human; settings: for adhesion of hADSCs on peptide-functionalized PEGDA-700 hydrogels: 15 mM peptide; for saturation number of attached hADSCs relative to MethRGDSP and MethG2RGDSP: saturated (maximum) number of attached cells, peptide 0.5-15 mM, 12 hours
Procedure: PEGDA and methacrylated peptides were mixed at varied peptide concentrations (i.e., 0.5, 1, 3, 6, 9, 12 and 15 mM) to prepare microarrayed hydrogels with different peptide concentrations. hADSCs were seeded onto the array and cultured for 12 hours.
All experiments were conducted using passage 5 (P5) hADSCs.

hiPSC-CMs [3] = assay: Sarcomere formation / alpha sarcomeric actinin expression of hiPSC-CMs on hydrogel microarray; assay type: cell-based, human; settings: 15 mM peptide, 3 days culture
Procedure: as §1
Briefly, hiPSC-CMs on the microarray were fixed with 4% PFA solution and blocked by 10% goat serum. […] Z-stacked Images collected from the microarray were analyzed by using the ImageJ (National Institutes of Health) for semi-quantitative analysis of the expression level of alpha sarcomeric actinin of hiPSC-CMs on the microarrays. The sarcomeric actinin expression level of hiPSC-CMs on each hydrogel spot was determined by the total fluorescence intensities of sarcomeric actinin staining divided by the total cell number on the hydrogel spot, which was then normalized to the blank PEG-700 hydrogel spots. […]

VLA-6 and αvβ3 integrin = assay: Integrin antibody blocking of HUVEC adhesion on alginate surface, anti VLA-6 + anti-integrin αvβ3; assay type: cell-based, human; settings: for decrease in HUVEC adhesion when both VLA-6 and αvβ3 integrin are blocked: 2D peptide-functionalized alginate, both antibodies, 6 hours; for integrin binding concluded from blocking experiments: HUVECs on peptide-functionalized alginates
Procedure: (§2) The integrin antibodies and their combinations (no antibody, anti VLA-6 only, anti-integrin αvβ3 only and anti VLA-6+ anti-integrin αvβ3,) were aliquot into predesigned ratio (final ratios in the mixture: 1:20 for anti VLA-6, 1:100 for anti-integrin αvβ3) with PBS, respectively. The HUVECs were incubated with these antibodies for 15 min, sedimented by low speed centrifugation, suspended in 100 μl of serum-free MEM plus 0.02% BSA and then added into the 1% alginate gel coated wells. The wells were transferred into incubator for 6 hours. After that, unattached cells were rinsed from the wells and the attached cells were then fixed and stained with DAPI for cell number counting and phalloidin for F-actin.

VLA-6 integrin = target: T1, VLA-6 integrin (Homo sapiens, UniProt P05556+P23229); assay: Integrin antibody blocking of HUVEC adhesion on alginate surface, anti VLA-6; assay type: cell-based; settings: 2D peptide-functionalized alginate, anti VLA-6 1:20, 6 hours
T1 construct: endogenous in cells; host or cells: HUVEC
T1 sequence (P23229 24-938 limits assumed): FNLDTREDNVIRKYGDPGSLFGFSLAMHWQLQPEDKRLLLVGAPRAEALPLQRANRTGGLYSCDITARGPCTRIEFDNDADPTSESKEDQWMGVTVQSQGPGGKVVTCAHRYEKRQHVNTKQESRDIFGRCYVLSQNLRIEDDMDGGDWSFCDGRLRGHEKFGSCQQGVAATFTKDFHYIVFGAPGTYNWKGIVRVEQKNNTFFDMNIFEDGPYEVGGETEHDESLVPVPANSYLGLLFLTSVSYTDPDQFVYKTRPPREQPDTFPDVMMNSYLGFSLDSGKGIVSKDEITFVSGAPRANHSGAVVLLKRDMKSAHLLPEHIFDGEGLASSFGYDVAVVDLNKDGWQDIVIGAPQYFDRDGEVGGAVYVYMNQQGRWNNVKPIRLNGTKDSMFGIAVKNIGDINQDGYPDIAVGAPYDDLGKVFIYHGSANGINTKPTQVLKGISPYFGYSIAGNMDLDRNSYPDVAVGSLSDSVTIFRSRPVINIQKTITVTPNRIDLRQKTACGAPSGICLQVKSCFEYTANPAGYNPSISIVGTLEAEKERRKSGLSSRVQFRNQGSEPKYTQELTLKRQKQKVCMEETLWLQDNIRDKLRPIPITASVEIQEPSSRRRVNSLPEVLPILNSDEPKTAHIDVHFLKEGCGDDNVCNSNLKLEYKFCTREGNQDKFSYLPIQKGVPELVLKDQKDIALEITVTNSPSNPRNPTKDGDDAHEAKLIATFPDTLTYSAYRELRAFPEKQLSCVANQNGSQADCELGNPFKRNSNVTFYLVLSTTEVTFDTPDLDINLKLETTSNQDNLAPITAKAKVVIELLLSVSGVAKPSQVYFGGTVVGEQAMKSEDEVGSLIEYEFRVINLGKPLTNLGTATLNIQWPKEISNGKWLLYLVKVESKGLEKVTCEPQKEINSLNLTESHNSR
T1 sequence (P23229 942-1130 partner limits assumed): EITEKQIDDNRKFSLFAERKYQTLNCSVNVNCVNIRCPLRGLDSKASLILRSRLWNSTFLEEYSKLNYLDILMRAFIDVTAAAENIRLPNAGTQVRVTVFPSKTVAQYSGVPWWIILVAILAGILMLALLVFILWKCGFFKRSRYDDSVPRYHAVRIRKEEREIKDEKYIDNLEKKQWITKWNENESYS
T1 sequence (P05556 21-798): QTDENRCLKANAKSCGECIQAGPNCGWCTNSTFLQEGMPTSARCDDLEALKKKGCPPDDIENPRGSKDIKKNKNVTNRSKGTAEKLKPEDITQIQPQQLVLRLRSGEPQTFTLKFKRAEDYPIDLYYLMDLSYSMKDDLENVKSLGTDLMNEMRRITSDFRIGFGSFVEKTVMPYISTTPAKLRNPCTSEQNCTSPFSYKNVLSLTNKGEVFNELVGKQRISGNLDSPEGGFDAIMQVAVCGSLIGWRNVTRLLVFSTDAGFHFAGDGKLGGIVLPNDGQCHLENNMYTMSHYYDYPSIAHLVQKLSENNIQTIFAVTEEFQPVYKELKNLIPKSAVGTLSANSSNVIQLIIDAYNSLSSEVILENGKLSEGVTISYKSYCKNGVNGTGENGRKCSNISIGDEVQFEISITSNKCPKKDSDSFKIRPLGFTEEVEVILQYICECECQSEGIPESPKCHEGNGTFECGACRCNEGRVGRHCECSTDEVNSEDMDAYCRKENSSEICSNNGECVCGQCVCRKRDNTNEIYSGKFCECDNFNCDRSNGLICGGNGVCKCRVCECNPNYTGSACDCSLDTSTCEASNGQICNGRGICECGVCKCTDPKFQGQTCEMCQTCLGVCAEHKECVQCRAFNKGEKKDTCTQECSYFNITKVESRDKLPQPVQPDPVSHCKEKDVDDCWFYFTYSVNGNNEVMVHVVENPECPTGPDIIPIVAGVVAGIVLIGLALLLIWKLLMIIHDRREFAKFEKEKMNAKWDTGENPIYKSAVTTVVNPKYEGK
Procedure: as §2

αvβ3 integrin = target: T2, αvβ3 integrin (Homo sapiens, UniProt P05106+P06756); assay: Integrin antibody blocking of HUVEC adhesion on alginate surface, anti-integrin αvβ3; assay type: cell-based; settings: 2D peptide-functionalized alginate, anti-integrin αvβ3 1:100, 6 hours
T2 construct: endogenous in cells; host or cells: HUVEC
T2 sequence (P06756 31-889 limits assumed): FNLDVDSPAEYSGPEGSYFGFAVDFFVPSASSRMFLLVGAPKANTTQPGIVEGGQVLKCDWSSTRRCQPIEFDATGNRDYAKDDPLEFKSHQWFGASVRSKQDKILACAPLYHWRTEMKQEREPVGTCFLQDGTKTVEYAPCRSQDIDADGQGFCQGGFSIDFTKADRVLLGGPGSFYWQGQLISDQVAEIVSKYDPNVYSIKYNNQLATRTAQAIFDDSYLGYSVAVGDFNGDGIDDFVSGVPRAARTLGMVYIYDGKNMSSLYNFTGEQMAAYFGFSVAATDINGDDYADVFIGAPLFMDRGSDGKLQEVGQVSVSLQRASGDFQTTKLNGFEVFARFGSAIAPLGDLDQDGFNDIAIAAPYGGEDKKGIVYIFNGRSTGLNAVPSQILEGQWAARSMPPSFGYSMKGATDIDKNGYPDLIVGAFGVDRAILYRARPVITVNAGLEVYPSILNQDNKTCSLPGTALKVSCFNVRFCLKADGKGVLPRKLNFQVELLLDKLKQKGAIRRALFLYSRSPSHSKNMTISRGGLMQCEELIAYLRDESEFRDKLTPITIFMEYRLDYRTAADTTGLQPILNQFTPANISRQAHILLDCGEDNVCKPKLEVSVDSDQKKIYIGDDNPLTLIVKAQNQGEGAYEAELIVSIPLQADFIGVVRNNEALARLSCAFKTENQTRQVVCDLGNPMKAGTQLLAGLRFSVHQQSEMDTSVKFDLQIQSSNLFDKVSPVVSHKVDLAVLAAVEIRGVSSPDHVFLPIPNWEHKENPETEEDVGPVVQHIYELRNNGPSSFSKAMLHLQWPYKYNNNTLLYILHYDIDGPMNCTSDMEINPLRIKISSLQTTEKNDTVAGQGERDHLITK
T2 sequence (P06756 891-1048 partner limits assumed): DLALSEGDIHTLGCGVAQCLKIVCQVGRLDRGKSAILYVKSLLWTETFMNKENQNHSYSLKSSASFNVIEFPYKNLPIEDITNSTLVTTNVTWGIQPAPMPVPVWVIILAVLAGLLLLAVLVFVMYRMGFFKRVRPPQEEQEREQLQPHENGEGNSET
T2 sequence (P05106 27-788): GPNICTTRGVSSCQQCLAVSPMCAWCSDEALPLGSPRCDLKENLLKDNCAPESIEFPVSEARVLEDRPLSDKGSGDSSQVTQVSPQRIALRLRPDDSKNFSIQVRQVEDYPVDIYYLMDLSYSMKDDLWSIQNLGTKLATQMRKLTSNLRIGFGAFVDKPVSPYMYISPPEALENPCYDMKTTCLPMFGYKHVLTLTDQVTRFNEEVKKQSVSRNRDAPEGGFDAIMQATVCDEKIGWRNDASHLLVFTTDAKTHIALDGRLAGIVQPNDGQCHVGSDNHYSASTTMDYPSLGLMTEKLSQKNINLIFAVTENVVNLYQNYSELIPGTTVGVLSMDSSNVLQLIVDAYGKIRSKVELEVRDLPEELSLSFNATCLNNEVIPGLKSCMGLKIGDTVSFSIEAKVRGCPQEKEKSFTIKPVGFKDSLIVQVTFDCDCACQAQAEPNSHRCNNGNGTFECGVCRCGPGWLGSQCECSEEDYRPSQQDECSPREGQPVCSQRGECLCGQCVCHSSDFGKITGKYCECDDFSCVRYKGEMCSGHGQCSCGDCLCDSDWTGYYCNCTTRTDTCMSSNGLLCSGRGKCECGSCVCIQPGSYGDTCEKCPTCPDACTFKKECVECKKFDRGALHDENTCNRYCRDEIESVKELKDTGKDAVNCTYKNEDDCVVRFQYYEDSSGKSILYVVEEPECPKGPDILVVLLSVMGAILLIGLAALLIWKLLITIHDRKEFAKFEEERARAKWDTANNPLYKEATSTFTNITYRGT
Procedure: as §2

HUVECs [4] = assay: HUVEC culture in 3D peptide-functionalized alginate hydrogels (spreading, proliferation, network formation); assay type: cell-based, human; settings: 1% alginate, 10% (w/w) peptide, 6 million HUVECs/ml, 2 days culture
Procedure: The Ca2+ containing substrates for alginate crosslinking was prepared as the previous literature mentioned. Alginate modified with these peptides (RGDS (SEQ ID NO:35), RGDSP (SEQ ID NO:33) and α1-peptide, respectively) was dissolved into HUVECs culturing media to prepare 1% alginate solution. […] mixture of the alginate and HUVECs was transferred into each well in 96 well plates (3 replicates for each peptide). The alginate was left gelling for 40 min. Then the well plates were transferred into incubator for 10 min to melt the Ca2+ containing substrates. After Ca2+ containing substrates get removed, HUVEC culturing media was added into each well and continue culture for additional two days. Media were changed every day. The cells were then fixed and stained with DAPI for cell number counting and phalloidin for F-actin to estimate cell spreading at day 0 and day 2. The fluorescent pictures were taken by a Leica TCS SP5 AOBS confocal microscope system. The total tubule length and the proliferation rates were measured.

KDR (VEGFR2) = assay: RT-PCR of VEGFR2 mRNA in HUVECs in 3D peptide-modified alginate gel; assay type: cell-based, human; settings: HUVECs in 3D peptide-functionalized alginate hydrogels, 6 hours culture
Procedure: Before PCR experiments, HUVECs were seeded in three different peptides (RGDS (SEQ ID NO:35), RGDSP (SEQ ID NO:33) and α1-peptide, respectively) modified 1% alginate gel. The cells were cultured for 6 hrs and then harvest for RNA isolation. Total RNA was isolated according to the kit and protocol of an RNeasy Micro Kit (Qiagen, Vinlo, Netherlands) with the addition of the QIAShredder (Qiagen) during the homogenization step for HUVECs. For each group, around 0.1 million cells were used for RNA isolation. At least 25 ng of total RNA for each group was used for cDNA synthesis by the Bio-Rad (Hercules, USA) iScript cDNA synthesis kit. qRT-PCR was executed with “best coverage” validated Taqman primers (Life Technologies, Carlsbad, USA) in 10 μl reactions for the following genes: KDR (VEGFR2), ACTB, GAPDH. qRT-PCR Data was normalized as the change in cycle threshold (dCt) from the geometric mean of ACTB and GAPDH expression. Expression was analyzed using mRNA expression=2^(−(dCt)) and then normalized to the gene expression from RGDS (SEQ ID NO:35) samples.

HUVECs (EC integrin) = assay: HUVEC adhesion on RGD peptide-functionalized PEG hydrogel microarray; assay type: cell-based, human; settings: for affinity to HUVECs / HUVEC adhesion on PEG hydrogel microarray: 12 hours culture
Procedure: Methacrylated peptides (shown in FIG. 7) were dissolved in DMF at pre-designated ratios (1 mM, 3 mM, 6 mM, 9 mM, 12 mM, 15 mM and 20 mM) and mixed with PEGDA (containing 1% DMPA as initiator) (DMF solution of methacrylated peptide: PEGDA=1:1 (v/v)) and then transferred into a 384 well plate for microarray fabrication. The microarrays were printed in a humid Ar-atmosphere on epoxy monolayer-coated glass slides (Xenopore XENOSLIDE E, Hawthorne, N.J.) which were first dip-coated in 4 v/v % poly(hydroxyethyl methacrylate) (i.e., poly(HEMA)) using a customized microarrayer (Biodot). Spots were polymerized via 10 s exposure to long wave UV (365 nm), dried at <50 mtorr for at least 7 days. Before use, the chips were sterilized by UV for 30 min for each side, and then washed with PBS twice for 15 min to remove residual monomer or solvent. HUVECs (human umbilical vein endothelial cells from Lonza, Basel, Switzerland) were seeded onto the array and cultured for 12 hours. They were then fixed and stained with DAPI for cell number counting and phalloidin for F-actin to estimate cell spreading for the lead peptide identification.

HUVECs [5] = assay: HUVEC adhesion on 2D surface of peptide-modified alginate hydrogel; assay type: cell-based, human; settings: 10% (w/w) peptide, 1% alginate, versus RGDS
Procedure: The peptides were conjugated onto the oxidized alginate by the EDC-NHS chemistry as reported by Rowley: using aqueous carbodiimide reacted with peptides (RGDS (SEQ ID NO:35), RGDSP (SEQ ID NO:33) and α1-peptide) onto the oxidized alginate. In order to secure sufficient cell attachment, 10% (w/w) peptide modification was performed into the alginate hydrogel.
The Ca2+ containing substrates for alginate crosslinking was prepared according to the literature. 50 μl, 1% alginate modified with peptides (RGDS (SEQ ID NO:35), RGDSP (SEQ ID NO:33) and α1-peptide, respectively) aqueous solution was transferred into each well in 96 well plates (3 replicates for each peptide). The alginate was left gelling for 40 min. Then the well plates were transferred into incubator for 10 min to melt the Ca2+ containing substrates. After Ca2+ containing substrates get removed, HUVECs were seeded onto the hydrogel layers and cultured for 12 hours. Then they were fixed and stained with DAPI for cell number counting and phalloidin for F-actin to estimate cell spreading.

## CQAGTFALRGDNPQG [A99, similar Ln derived peptide]
[1]
  integrin binding reported for A99: bind to both VLA-6 (α6) and αvβ3 integrin subunits

## DAVKQLQAAERGDA [derived from Laminin subunit α4]
hiPSC-CMs [2]
  hiPSC-CM adhesion / affinity to hiPSC-CMs: substantial activities to support hiPSC-CM adhesion

## G4RDGSP: methacrylated scrambled sequence of G4RGDSP (Meth-GGGGRDGSP) [reference compound]
hADSCs
  adhesion of hADSCs on peptide-functionalized PEGDA-700 hydrogels: no cell adhesion

## MethG4RGDSP: methacrylated-RGDSP-peptide with 4 glycine linker (Meth-GGGGRGDSP)
hADSCs
  adhesion of hADSCs on peptide-functionalized PEGDA-700 hydrogels: effectively promote adhesion of hADSCs
  saturation number of attached hADSCs relative to MethRGDSP and MethG2RGDSP: about one-fold higher

## MethG6RGDSP: methacrylated-RGDSP-peptide with 6 glycine linker (Meth-GGGGGGRGDSP)
hADSCs
  saturation number of attached hADSCs relative to MethRGDSP and MethG2RGDSP: about one-fold higher

## PMQKMRGDVFSP [derived from Laminin subunit β4]
hiPSC-CMs [2]
  hiPSC-CM adhesion / affinity to hiPSC-CMs: greatest ability to promote hiPSC-CM adhesion; also recorded: substantial activities to support hiPSC-CM adhesion; also recorded: highest affinity to hiPSC-CMs
hiPSC-CMs [3]
  sarcomere formation / sarcomeric actinin expression of hiPSC-CMs: greatest ability to promote hiPSC-CM adhesion and sarcomere formation; also recorded: most developed sarcomere structures
hiPSC-CMs [3]; listed as RGD (SEQ ID NO:36) peptide from laminin β4 subunit
  sarcomere formation / sarcomeric actinin expression of hiPSC-CMs: highest sarcomeric actinin expression

## PQVTRGDVFTMP [RGD peptide from vitronectin, included as a control, reference compound]
hiPSC-CMs [2]
  hiPSC-CM adhesion / affinity to hiPSC-CMs: moderate cell adhesion

## RGDS [RGD peptide derived from Fn]
VLA-6 and αvβ3 integrin
  decrease in HUVEC adhesion when both VLA-6 and αvβ3 integrin are blocked: ~35%
  integrin binding concluded from blocking experiments: bind to αvβ3 integrin
VLA-6 integrin
  decrease in HUVEC adhesion when VLA-6 integrin is blocked: does not significantly affect cell adhesion
αvβ3 integrin
  decrease in HUVEC adhesion when αvβ3 integrin is blocked: ~35%
HUVECs [4]
  HUVEC spreading, proliferation and network formation in 3D alginate hydrogel: limited cell spreading and no visible network formation

## RGDSP [RGD peptide derived from Fn]
VLA-6 and αvβ3 integrin
  integrin binding concluded from blocking experiments: bind to αvβ3 integrin
KDR (VEGFR2)
  mRNA expression of VEGFR2: significant higher amount of VEGFR2 mRNA expression
VLA-6 integrin
  decrease in HUVEC adhesion when VLA-6 integrin is blocked: does not significantly affect cell adhesion
HUVECs (EC integrin)
  affinity to HUVECs / HUVEC adhesion on PEG hydrogel microarray: significantly higher affinity to HUVECs than RGDS
HUVECs [4]
  HUVEC spreading, proliferation and network formation in 3D alginate hydrogel: limited cell spreading and no visible network formation

## SETQRGDVFVP [RGD peptide of the 12-peptide library, reference compound]
hiPSC-CMs [2]
  hiPSC-CM adhesion / affinity to hiPSC-CMs: moderate cell adhesion

## TFALRGDNP [α1 peptide, RGD peptide derived from Ln α1 subunit]
HUVECs [5]
  number of HUVECs attached to 2D surface of alginate hydrogel, higher than RGDS: ~150%
VLA-6 and αvβ3 integrin
  decrease in HUVEC adhesion when both VLA-6 and αvβ3 integrin are blocked: ~70%
  integrin binding concluded from blocking experiments: binds to both VLA-6 and αvβ3 integrin
KDR (VEGFR2)
  mRNA expression of VEGFR2: significantly up-regulated
HUVECs (EC integrin)
  affinity to HUVECs / HUVEC adhesion on PEG hydrogel microarray: highest activities to promote HUVEC adhesion
HUVECs (EC integrin); PEG hydrogel microarray, versus RGDS
  saturated number of attached HUVECs, higher than RGDS: ~500%
HUVECs (EC integrin); PEG hydrogel microarray, versus RGDSP
  saturated number of attached HUVECs, higher than RGDSP: ~200%
HUVECs [4]
  HUVEC spreading, proliferation and network formation in 3D alginate hydrogel: significantly enhanced cell proliferation and network formation
